Drawing on patent publication US20240316022A1 (TYRA BIOSCIENCES, INC., priority 2021, published 2024), this text covers Kd for 23 compounds.

Experiment in all cases: Kinase binding assay (kinase-tagged T7 phage, qPCR), Kd
For one assay, the target named is T1, FGFR3 (Homo sapiens, UniProt P22607).
T1 construct: made in house; host or cells: E. coli derived from BL21, infected with T7 phage
As to conditions: read-out: FGFR3 (Kd nM).

The target in the next assay is T2, FGFR4 (Homo sapiens, UniProt P22455).
T2 construct: made in house; host or cells: E. coli derived from BL21, infected with T7 phage
T2 sequence (P22455 22-802): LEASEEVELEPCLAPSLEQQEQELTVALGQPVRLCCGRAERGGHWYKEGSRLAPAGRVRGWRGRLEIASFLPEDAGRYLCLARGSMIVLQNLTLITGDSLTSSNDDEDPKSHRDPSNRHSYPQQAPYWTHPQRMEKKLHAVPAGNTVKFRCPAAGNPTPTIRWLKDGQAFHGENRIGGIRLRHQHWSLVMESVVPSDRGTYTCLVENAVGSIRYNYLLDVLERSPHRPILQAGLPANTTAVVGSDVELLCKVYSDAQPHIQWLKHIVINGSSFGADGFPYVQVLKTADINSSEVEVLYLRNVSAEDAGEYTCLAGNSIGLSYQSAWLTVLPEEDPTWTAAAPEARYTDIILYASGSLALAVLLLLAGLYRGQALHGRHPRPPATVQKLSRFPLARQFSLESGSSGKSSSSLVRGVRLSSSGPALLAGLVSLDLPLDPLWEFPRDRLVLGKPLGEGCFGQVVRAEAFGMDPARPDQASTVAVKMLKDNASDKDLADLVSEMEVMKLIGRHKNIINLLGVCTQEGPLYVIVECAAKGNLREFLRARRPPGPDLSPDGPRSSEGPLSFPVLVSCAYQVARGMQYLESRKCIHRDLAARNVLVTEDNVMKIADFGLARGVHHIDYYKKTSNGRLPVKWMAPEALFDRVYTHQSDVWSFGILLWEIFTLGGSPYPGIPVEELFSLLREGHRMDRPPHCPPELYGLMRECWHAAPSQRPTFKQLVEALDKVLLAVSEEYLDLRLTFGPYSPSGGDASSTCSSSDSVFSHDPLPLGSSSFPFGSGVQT
Particulars: read-out: FGFR4 (Kd nM).

In the next assay the target is T3, FGFR2 (Homo sapiens, UniProt P21802).
T3 construct: made in house; host or cells: E. coli derived from BL21, infected with T7 phage
T3 sequence (P21802 22-821): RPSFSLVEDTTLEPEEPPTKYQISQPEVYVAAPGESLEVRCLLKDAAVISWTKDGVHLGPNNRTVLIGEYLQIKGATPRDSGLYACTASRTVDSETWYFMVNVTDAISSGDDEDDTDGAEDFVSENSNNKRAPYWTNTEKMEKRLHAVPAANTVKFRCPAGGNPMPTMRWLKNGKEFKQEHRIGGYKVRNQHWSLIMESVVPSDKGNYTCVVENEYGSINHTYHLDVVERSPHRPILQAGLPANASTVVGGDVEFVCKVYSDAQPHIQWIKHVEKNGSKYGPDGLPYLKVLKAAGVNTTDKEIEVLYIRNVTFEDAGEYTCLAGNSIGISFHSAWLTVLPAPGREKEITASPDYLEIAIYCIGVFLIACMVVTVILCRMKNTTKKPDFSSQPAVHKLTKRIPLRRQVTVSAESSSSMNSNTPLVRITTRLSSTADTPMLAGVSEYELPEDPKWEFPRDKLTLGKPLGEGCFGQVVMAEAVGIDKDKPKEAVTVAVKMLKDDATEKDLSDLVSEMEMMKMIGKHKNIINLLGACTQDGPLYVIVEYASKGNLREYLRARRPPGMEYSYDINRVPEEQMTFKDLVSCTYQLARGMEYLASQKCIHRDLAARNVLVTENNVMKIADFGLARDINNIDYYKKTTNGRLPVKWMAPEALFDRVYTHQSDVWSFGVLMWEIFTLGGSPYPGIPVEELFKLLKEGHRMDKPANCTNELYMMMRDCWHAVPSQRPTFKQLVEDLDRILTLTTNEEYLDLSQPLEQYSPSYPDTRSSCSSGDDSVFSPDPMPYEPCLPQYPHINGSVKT
As to conditions: read-out: FGFR2 (Kd nM).

The target of a further assay is T4, FGFR1 (Homo sapiens, UniProt P11362).
T4 construct: made in house; host or cells: E. coli derived from BL21, infected with T7 phage
T4 sequence (P11362 22-822): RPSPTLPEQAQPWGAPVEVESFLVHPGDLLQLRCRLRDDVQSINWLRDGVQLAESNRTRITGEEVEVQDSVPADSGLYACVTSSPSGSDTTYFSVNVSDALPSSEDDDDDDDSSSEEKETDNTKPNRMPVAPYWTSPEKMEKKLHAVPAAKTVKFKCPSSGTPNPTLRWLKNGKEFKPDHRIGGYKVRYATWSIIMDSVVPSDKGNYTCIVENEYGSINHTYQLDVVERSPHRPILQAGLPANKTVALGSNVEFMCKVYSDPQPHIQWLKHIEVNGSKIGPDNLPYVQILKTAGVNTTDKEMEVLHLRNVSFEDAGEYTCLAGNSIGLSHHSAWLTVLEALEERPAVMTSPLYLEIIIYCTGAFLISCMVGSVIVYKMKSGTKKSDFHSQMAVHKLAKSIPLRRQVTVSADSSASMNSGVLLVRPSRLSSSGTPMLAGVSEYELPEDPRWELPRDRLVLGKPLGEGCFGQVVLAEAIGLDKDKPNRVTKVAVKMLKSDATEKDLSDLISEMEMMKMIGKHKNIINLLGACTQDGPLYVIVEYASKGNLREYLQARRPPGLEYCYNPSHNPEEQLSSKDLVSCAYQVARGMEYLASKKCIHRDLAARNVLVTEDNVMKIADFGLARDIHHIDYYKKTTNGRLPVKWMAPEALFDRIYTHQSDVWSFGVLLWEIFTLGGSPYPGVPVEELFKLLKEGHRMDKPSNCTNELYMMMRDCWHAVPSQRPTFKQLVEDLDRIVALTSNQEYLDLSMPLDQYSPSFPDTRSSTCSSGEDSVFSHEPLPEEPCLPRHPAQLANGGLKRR
Particulars: read-out: FGFR1 (Kd nM).

T1 sequence (P22607 23-806): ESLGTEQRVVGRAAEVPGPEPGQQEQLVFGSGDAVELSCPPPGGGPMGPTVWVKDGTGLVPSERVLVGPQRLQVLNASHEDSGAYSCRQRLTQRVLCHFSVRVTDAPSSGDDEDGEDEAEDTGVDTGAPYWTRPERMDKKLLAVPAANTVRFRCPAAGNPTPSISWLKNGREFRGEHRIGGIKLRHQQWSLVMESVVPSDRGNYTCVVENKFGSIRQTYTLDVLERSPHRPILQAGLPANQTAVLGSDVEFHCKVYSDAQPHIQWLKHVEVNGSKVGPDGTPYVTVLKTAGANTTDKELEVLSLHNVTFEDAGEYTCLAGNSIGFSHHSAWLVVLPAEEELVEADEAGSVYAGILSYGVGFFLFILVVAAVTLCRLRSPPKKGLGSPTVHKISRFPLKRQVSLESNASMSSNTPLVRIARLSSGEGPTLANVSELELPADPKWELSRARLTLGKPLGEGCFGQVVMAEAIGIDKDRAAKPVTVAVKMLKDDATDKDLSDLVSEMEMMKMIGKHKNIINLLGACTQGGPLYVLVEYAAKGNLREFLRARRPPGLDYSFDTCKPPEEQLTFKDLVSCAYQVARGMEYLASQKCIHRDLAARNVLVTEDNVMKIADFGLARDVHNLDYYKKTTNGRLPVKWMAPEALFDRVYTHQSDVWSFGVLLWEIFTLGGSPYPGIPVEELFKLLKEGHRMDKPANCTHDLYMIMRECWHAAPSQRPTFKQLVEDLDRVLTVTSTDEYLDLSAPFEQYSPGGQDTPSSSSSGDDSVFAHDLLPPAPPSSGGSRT

Take `C[C@@H](Oc1ccc2[nH]nc(-c3cnc4c(c3)OCC(=O)N4)c2c1)c1c(Cl)cncc1Cl` [Example 38, 7-[5-[(1R)-1-(3,5-dichloro-4-pyridyl)ethoxy]-1H-indazol-3-yl]-4H-pyrido[3,2-b][1,4]oxazin-3-one]: the Kd at FGFR3, on FGFR4, at FGFR2 and at FGFR1 was 0.1 to 100 nM each time.

As for `CCOc1cc(OC)cc(-c2n[nH]c3ccc(O[C@H](C)c4c(C)cnnc4C)cc23)c1` [Example 52, 5-[(1R)-1-(3,5-dimethylpyridazin-4-yl)ethoxy]-3-(3-ethoxy-5-methoxy-phenyl)-1H-indazole], the equilibrium dissociation constant (Kd) was 100 to 250 nM at FGFR3, 0.1 to 100 nM at FGFR4, 250 to 1000 nM on FGFR2 and more than 1000 nM at FGFR1.

As to `Cc1cnnc(C)c1[C@H](C)Oc1ccc2[nH]nc(-c3cc(C#N)cc(N4CCN(C)CC4)c3)c2c1` [Example 66, 3-[5-[(1S)-1-(3,5-dimethylpyridazin-4-yl)ethoxy]-1H-indazol-3-yl]-5-(4-methylpiperazin-1-yl)benzonitrile], the Kd on FGFR3 was more than 1000 nM; on FGFR4 it was 250 to 1000 nM; on FGFR2, more than 1000 nM; at FGFR1, more than 1000 nM.

With `COc1cc(-c2n[nH]c3cc(OC)c(O[C@H](C)c4c(C)cnnc4C)cc23)cc(C#N)n1` [Example 98, (R)-4-(5-(1-(3,5-dimethylpyridazin-4-yl)ethoxy)-6-methoxy-1H-indazol-3-yl)-6-methoxypicolinonitrile], the Kd on FGFR3 was in the range of 100 to 250 nM; at FGFR4, 0.1 to 100 nM; on FGFR2, 100 to 250 nM; at FGFR1 it was 100 to 250 nM.

Consider `C[C@@H](Oc1cc2c(-c3cnc4c(c3)N(S(C)(=O)=O)CCO4)n[nH]c2cc1Cl)c1c(Cl)cncc1Cl` [Example 145, 7-[6-chloro-5-[(1R)-1-(3,5-dichloro-4-pyridyl)ethoxy]-1H-indazol-3-yl]-1-methylsulfonyl-2,3-dihydropyrido[2,3-b][1,4]oxazine], for which the Kd at FGFR3 was more than 1000 nM; on FGFR4, 0.1 to 100 nM; at FGFR2 it was more than 1000 nM; on FGFR1, more than 1000 nM.

For `CC(C)OC(=O)Nc1ccc(-c2n[nH]c3ccc(O[C@H](C)c4c(Cl)cncc4Cl)cc23)cn1` [Example 27, isopropyl N-[5-[5-[(1R)-1-(3,5-dichloro-4-pyridyl)ethoxy]-1H-indazol-3-yl]-2-pyridyl]carbamate], the Kd at FGFR3 is 0.1 to 100 nM; at FGFR4, 0.1 to 100 nM; at FGFR2, 250 to 1000 nM; at FGFR1, 100 to 250 nM.

With `Cc1cnnc(C)c1[C@H](C)Oc1ccc2[nH]nc(-c3cc(C#N)cc(N4CCOCC4)c3)c2c1` [Example 65, 3-[5-[(1S)-1-(3,5-Dimethylpyridazin-4-yl)ethoxy]-1H-indazol-3-yl]-5-morpholino-benzonitrile], the Kd at FGFR3, at FGFR4, on FGFR2 and on FGFR1 was more than 1000 nM throughout.

For `COc1cc2[nH]nc(-c3cnc4c(c3)N(S(C)(=O)=O)CCO4)c2cc1O[C@H](C)c1c(Cl)cncc1Cl` [Example 140, 7-[5-[(1R)-1-(3,5-dichloro-4-pyridyl)ethoxy]-6-methoxy-1H-indazol-3-yl]-1-methylsulfonyl-2,3-dihydropyrido[2,3-b][1,4]oxazine], the Kd is 100 to 250 nM on FGFR3, 0.1 to 100 nM at FGFR4, 250 to 1000 nM at FGFR2 and 250 to 1000 nM at FGFR1.

As for `CCOc1cc(-c2n[nH]c3ccc(O[C@H](C)c4c(Cl)cncc4Cl)cc23)cnc1N` [Example 33, 5-[5-[(1R)-1-(3,5-Dichloro-4-pyridyl)ethoxy]-1H-indazol-3-yl]-3-ethoxy-pyridin-2-amine], the Kd on FGFR3 was 250 to 1000 nM; on FGFR4, 0.1 to 100 nM; at FGFR2, more than 1000 nM; on FGFR1, more than 1000 nM.

As to `COc1ncc(-c2n[nH]c3ccc(O[C@H](C)c4c(Cl)cncc4Cl)cc23)cc1NCc1ccccn1` [Example 4, (R)-5-(5-(1-(3,5-Dichloropyridin-4-yl)ethoxy)-1H-indazol-3-yl)-2-methoxy-N-(pyridin-2-ylmethyl)pyridin-3-amine], the Kd on FGFR3 is 250 to 1000 nM; at FGFR4, 250 to 1000 nM; at FGFR2 it was more than 1000 nM; at FGFR1, more than 1000 nM.

For `C[C@@H](Oc1ccc2[nH]nc(-c3cnc(N)c(OCC(F)(F)F)c3)c2c1)c1c(Cl)cncc1Cl` [Example 37, 5-[5-[(1R)-1-(3,5-Dichloro-4-pyridyl)ethoxy]-1H-indazol-3-yl]-3-(2,2,2-trifluoroethoxy)pyridin-2-amine], the Kd on FGFR3 is more than 1000 nM; on FGFR4, 0.1 to 100 nM; on FGFR2 it was more than 1000 nM; on FGFR1, more than 1000 nM.

As to `COc1ncc(-c2n[nH]c3ccc(O[C@H](C)c4c(C)cnnc4C)cc23)cc1C#N` [Example 88, 5-[5-[(1R)-1-(3,5-dimethylpyridazin-4-yl)ethoxy]-1H-indazol-3-yl]-2-methoxy-pyridine-3-carbonitrile], the Kd lay in the range of 100 to 250 nM on FGFR3, 0.1 to 100 nM at FGFR4, 250 to 1000 nM on FGFR2 and 250 to 1000 nM on FGFR1.

For `Cc1cc(-c2n[nH]c3ccc(O[C@H](C)c4c(C)cnnc4C)cc23)cc(C#N)c1F` [Example 77, 5-[5-[(1R)-1-(3,5-dimethylpyridazin-4-yl)ethoxy]-1H-indazol-3-yl]-2-fluoro-3-methyl-benzonitrile], the Kd at FGFR3 fell in the range of 0.1 to 100 nM; on FGFR4, 0.1 to 100 nM; at FGFR2, 100 to 250 nM; on FGFR1, 250 to 1000 nM.

Turning to `COc1ncc(-c2n[nH]c3ccc(O[C@H](C)c4c(Cl)cncc4Cl)cc23)cc1NCc1ccnc(C)c1` [Example 6, (R)-5-(5-(1-(3,5-Dichloropyridin-4-yl)ethoxy)-1H-indazol-3-yl)-2-methoxy-N-((2-methylpyridin-4-yl)methyl)pyridin-3-amine], the Kd on FGFR3 is more than 1000 nM; at FGFR4, 250 to 1000 nM; at FGFR2, more than 1000 nM; at FGFR1 it was more than 1000 nM.

With `COc1cc(-c2n[nH]c3ccc(O[C@H](C)c4c(Cl)cncc4Cl)cc23)cc(C#N)c1OC1CCNCC1` [Example 105, 5-[5-[(1R)-1-(3,5-dichloro-4-pyridyl)ethoxy]-1H-indazol-3-yl]-3-methoxy-2-(4-piperidyloxy)benzonitrile], the Kd at FGFR3 was 250 to 1000 nM; at FGFR4 it was 0.1 to 100 nM; at FGFR2, more than 1000 nM; at FGFR1 it was more than 1000 nM.

On to `COc1cc(OC)cc(-c2n[nH]c3ccc(O[C@@H](C)c4c(C)cnnc4C)cc23)c1` [Example 58, 3-(3,5-dimethoxyphenyl)-5-[(1S)-1-(3,5-dimethylpyridazin-4-yl)ethoxy]-1H-indazole], for which the Kd at FGFR3, on FGFR4, on FGFR2 and on FGFR1 was 0.1 to 100 nM in each case.

Turning to `Cc1cnnc(C)c1[C@@H](C)Oc1ccc2[nH]nc(-c3cc(C#N)cc(C#N)c3)c2c1` [Example 83, 5-[5-[(1R)-1-(3,5-dimethylpyridazin-4-yl)ethoxy]-1H-indazol-3-yl]benzene-1,3-dicarbonitrile], the Kd is 250 to 1000 nM at FGFR3, 0.1 to 100 nM at FGFR4, more than 1000 nM on FGFR2 and 250 to 1000 nM on FGFR1.

Consider `Cc1cccc(C(=O)N2CCOc3ncc(-c4n[nH]c5ccc(O[C@H](C)c6c(Cl)cncc6Cl)cc45)cc32)n1` [Example 39, [7-[5-[(1R)-1-(3,5-dichloro-4-pyridyl)ethoxy]-1H-indazol-3-yl]-2,3-dihydro-pyrido[2,3-b][1,4]oxazin-1-yl]-(6-methyl-2-pyridyl)methanone], for which the Kd on FGFR3 was 250 to 1000 nM; on FGFR4, 0.1 to 100 nM; on FGFR2, more than 1000 nM; at FGFR1, more than 1000 nM.

`C[C@@H](Oc1ccc2[nH]nc(-c3cnc(OCC(C)(C)O)c(C#N)c3)c2c1)c1c(Cl)cncc1Cl` [Example 122, 5-[5-[(1R)-1-(3,5-dichloro-4-pyridyl)ethoxy]-1H-indazol-3-yl]-2-(2-hydroxy-2-methyl-propoxy)pyridine-3-carbonitrile]: the Kd at FGFR3, on FGFR4, at FGFR2 and on FGFR1 was 0.1 to 100 nM in each case.

Take `C[C@@H](Oc1ccc2[nH]nc(-c3ccc(OC4CC5(COC5)C4)nc3)c2c1)c1c(Cl)cncc1Cl` [Example 161, (R)-3-(6-(2-oxaspiro[3.3]heptan-6-yloxy)pyridin-3-yl)-5-(1-(3,5-dichloropyridin-4-yl)ethoxy)-1H-indazole]: the Kd at FGFR3, at FGFR4, at FGFR2 and at FGFR1 was 0.1 to 100 nM throughout.

`C[C@@H](Oc1ccc2[nH]nc(-c3cnc(O[C@H]4CCOC4)c(C#N)c3)c2c1)c1c(Cl)cncc1Cl` [Example 133, 5-(5-((R)-1-(3,5-dichloropyridin-4-yl)ethoxy)-1H-indazol-3-yl)-2-(((S)-tetrahydrofuran-3-yl)oxy)nicotinonitrile]: the Kd on FGFR3 was in the range of 0.1 to 100 nM; on FGFR4 it was 0.1 to 100 nM; at FGFR2, 0.1 to 100 nM; at FGFR1, 100 to 250 nM.

Turning to `COc1cc(-c2n[nH]c3ccc(O[C@H](C)c4c(Cl)cnc(F)c4Cl)cc23)cc2c1OC1(CCN(C(C)C)CC1)OC2` [Example 123, (R)-6-(5-(1-(3,5-dichloro-2-fluoropyridin-4-yl)ethoxy)-1H-indazol-3-yl)-1′-isopropyl-8-methoxy-4H-spiro[benzo[d][1,3]dioxine-2,4′-piperidine]], the Kd at FGFR3 was in the range of 0.1 to 100 nM; at FGFR4, 0.1 to 100 nM; at FGFR2 it was 250 to 1000 nM; on FGFR1, 250 to 1000 nM.

`Cc1cnnc(C)c1[C@H](C)Oc1ccc2[nH]nc(-c3cc(C#N)cc(N4CC5(CN(C)C5)C4)c3)c2c1` [Example 91, (S)-3-(5-(1-(3,5-dimethylpyridazin-4-yl)ethoxy)-1H-indazol-3-yl)-5-(6-methyl-2,6-diazaspiro[3.3]heptan-2-yl)benzonitrile]: the Kd at FGFR3, on FGFR4, on FGFR2 and at FGFR1 was more than 1000 nM in each case.
